Drawing on patent US20240034717A1, “NOVEL POTASSIUM CHANNEL INHIBITORS” (Saniona A/S, priority 2020, published 2024), this text covers IC50 for 35 compounds.

The target of this experiment is erythrocyte KCa3.1 channels (Homo sapiens (Human), UniProt O15554). Briefly: Erythrocyte KCa3.1 assay. It counts as cell-based. The note with it: human erythrocytes, A23187-activated KCa3.1; read-out: RBC K (in vitro) Human IC50 (μM) Potency category. How it is done: Human blood was drawn from healthy human volunteers in a standard heparinized blood sampling vial (Vacutainer, Li/heparin, ED Bioscience, Plymouth, UK). The erythrocytes were packed by centrifugation, and the plasma and buffy coat were removed by aspiration. Erythrocytes were washed three times in the experimental salt solution and then stored at 0° C. until use. Blood samples from NMRI mice or from Wistar rats were treated similarly. The methodological principle is outlined in Macey et al. (1978) and further described in Strøbaek et al. (2013). Activation of the erythrocyte KCa3.1 channels were obtained by addition of the Ca^2+ ionophore A23187, which causes synchronized hyperpolarization, which is reported as a CCCP-mediated shift in the unbuffered extracellular pH of the erythrocyte suspension. Standard procedure: 3 mL unbuffered experimental salt solution (in mM: 2 KCl, 154 NaCl, 0.05 CaCl2) was heated to 37° C. with stirring. Packed erythrocytes were added (50 μL, final cytocrit 1.5%), and the extracellular pH (pHo) followed with a glass/calomel (pHG200-8/REF200, Radiometer, Denmark) electrode pair. CCCP (3 μL, final concentration 20 μM) was added followed by varying concentrations of test compounds (DMSO concentration constant). After pH stabilization at ˜7.2, A23187 (3 μL, final concentration 0.33 μM) was added to initiate the experiment. After the peak hyperpolarization was attained, the intracellular pH (pHi constant during the experiment) was found by haemolysing the erythrocytes via addition of 100 μL of Triton-X100.
The erythrocyte membrane potential, Vm, was calculated according to: […]
and the fractional remaining Ca^2+-activated K^+-conductance at the concentration C of blocker, fGK(C), was calculated from
where the K^+ equilibrium potential EK=−107 mV, the Cl^− equilibrium potential ECl=−12 mV and the Vm(0) and Vm(C) are the peak hyperpolarizations in the control and in the presence of a concentration of C of blocker respectively.
IC50 values for compounds were calculated from a plot of fGK(C) versus C by a fit to the Hill equation, using a custom program written in the IGOR-Pro software (WaveMetrics, Lake Oswego, OR, USA). All IC50-values are reported in μM.
In the case of `Fc1ccc(C2(NC[C@H]3CCCN3)CCC2)cc1C1CC1` [1-(3-cyclopropyl-4-fluorophenyl)-N-{[(2R)-pyrrolidin-2-yl]methyl}cyclobutan-1-amine], the IC50 is below 1 µM.

Regarding `Fc1ccc(C2(NC[C@@H]3CCCN3)CCC2)cc1C1CC1` [1-(3-cyclopropyl-4-fluorophenyl)-N-{[(2S)-pyrrolidin-2-yl]methyl}cyclobutan-1-amine], the IC50 is below 1 µM.

On to `Fc1cc(C(F)(F)F)cc(C2(NC[C@H]3CCCN3)CCC2)c1` [1-[3-fluoro-5-(trifluoromethyl)phenyl]-N-{[(2R)-pyrrolidin-2-yl]methyl}cyclobutan-1-amine], for which the IC50 is below 1 µM.

With `Fc1ccc(C2(NC[C@H]3CCCN3)CCC2)cc1C(F)(F)F` [1-[4-fluoro-3-(trifluoromethyl)phenyl]-N-{[(2R)-pyrrolidin-2-yl]methyl}cyclobutan-1-amine], the IC50 was below 1 µM.

Take `Fc1ccc(C2(NC[C@@H]3CCCN3)CCC2)cc1C(F)(F)F` [1-[4-fluoro-3-(trifluoromethyl)phenyl]-N-{[(2S)-pyrrolidin-2-yl]methyl}cyclobutan-1-amine]: the IC50 was below 0.3 µM.

In the case of `CC(C)(N)CNC1(c2cccc(C(F)(F)F)c2)CCC1` [2-methyl-N1-{1-[3-(trifluoromethyl)phenyl]cyclobutyl}propane-1,2-diamine], the IC50 was below 0.3 µM.

`CS(=O)(=O)N(C[C@H]1CCCN1)C1(c2ccc(F)c(C(F)(F)F)c2)CC1` [(R)-N-(1-(4-fluoro-3-(trifluoromethyl)phenyl)cyclopropyl)-N-(pyrrolidin-2-ylmethyl) methane sulfonamide]: the IC50 was below 1 µM.

For `O=C(OCC1CC1)N(C[C@@H]1CCCN1)C1(c2ccc(F)c(C(F)(F)F)c2)CC1` [Cyclopropylmethyl (S)-(1-(4-fluoro-3-(trifluoromethyl)phenyl)cyclopropyl)(pyrrolidin-2-ylmethyl)carbamate], the half-inhibitory concentration (IC50) is below 0.3 µM.

As to `COC(=O)N(CCN)C1(c2ccc(F)c(C(F)(F)F)c2)CC1` [Methyl (2-aminoethyl)(1-(4-fluoro-3-(trifluoromethyl)phenyl)cyclopropyl)carbamate], the IC50 was below 1 µM.

For the compound `COC(=O)N(C[C@@H]1COCCN1C)C1(c2ccc(F)c(C(F)(F)F)c2)CC1` [Methyl (R)-(1-(4-fluoro-3-(trifluoromethyl)phenyl)cyclopropyl)((4-methylmorpholin-3-yl)methyl)carbamate], the IC50 was below 0.3 µM.

For the compound `COC(=O)N(C[C@@H]1COCCN1)C1(c2ccc(F)c(C(F)(F)F)c2)CC1` [Methyl (R)-(1-(4-fluoro-3-(trifluoromethyl)phenyl)cyclopropyl)(morpholin-3-ylmethyl) carbamate], the IC50 is below 1 µM.

Consider `COC(=O)N(CC(C)(C)N)C1(c2cc(Cl)ccc2F)CCC1` [Methyl N-(2-amino-2-methylpropyl)-N-[1-(5-chloro-2-fluorophenyl)cyclobutyl]carbamate], for which the IC50 is below 1 µM.

As for `COC(=O)N(CC(C)(C)N)C1(c2cccc(OC(F)(F)F)c2)CCC1` [Methyl N-(2-amino-2-methylpropyl)-N-{1-[3-(trifluoromethoxy)phenyl]cyclobutyl}carbamate], the concentration for half-maximal inhibition (IC50) was below 0.3 µM.

As to `COC(=O)N(CC(C)(C)N)C1(c2cc(F)cc(C(F)(F)F)c2)CCC1` [Methyl N-(2-amino-2-methylpropyl)-N-{1-[3-fluoro-5-(trifluoromethyl)phenyl]cyclobutyl}carbamate], the concentration for half-maximal inhibition (IC50) is below 0.3 µM.

Consider `COC(=O)N(C[C@H]1CCCN1)C1(c2cccc(Cl)c2)CCC1` [Methyl N-[1-(3-chlorophenyl)cyclobutyl]-N-{[(2R)-pyrrolidin-2-yl]methyl}carbamate], for which the concentration for half-maximal inhibition (IC50) was below 0.3 µM.

Turning to `COC(=O)N(C[C@@H]1CCCN1)C1(c2cccc(Cl)c2)CCC1` [Methyl N-[1-(3-chlorophenyl)cyclobutyl]-N-{[(2S)-pyrrolidin-2-yl]methyl}carbamate], the IC50 was below 0.3 µM.

As for `COC(=O)N(C[C@@H]1CCCN1)C1(c2cc(Cl)ccc2F)CCC1` [Methyl N-[1-(5-chloro-2-fluorophenyl)cyclobutyl]-N-{[(2S)-pyrrolidin-2-yl]methyl}carbamate], the IC50 was below 1 µM.

Turning to `COC(=O)N(C[C@@H]1CCCN1)C1(c2cc(C(F)(F)F)ccc2F)CCC1` [Methyl N-{1-[2-fluoro-5-(trifluoromethyl)phenyl]cyclobutyl}-N-{[(2S)-pyrrolidin-2-yl]methyl}carbamate], the IC50 was below 1 µM.

For the compound `COC(=O)N(C[C@H]1CCCN1)C1(c2cc(F)cc(C(F)(F)F)c2)CCC1` [Methyl N-{1-[3-fluoro-5-(trifluoromethyl)phenyl]cyclobutyl}-N-{[(2R)-pyrrolidin-2-yl]methyl}carbamate], the IC50 was below 0.3 µM.

Consider `COC(=O)N(C[C@@H]1CCCN1)C1(c2cc(F)cc(C(F)(F)F)c2)CCC1` [Methyl N-{1-[3-fluoro-5-(trifluoromethyl)phenyl]cyclobutyl}-N-{[(2S)-pyrrolidin-2-yl]methyl}carbamate], for which the IC50 is below 0.3 µM.

With `COC(=O)N(C[C@H]1CCCN1)C1(c2cccc(OC(F)(F)F)c2)CCC1` [Methyl N-{[(2R)-pyrrolidin-2-yl]methyl}-N-{1-[3-(trifluoromethoxy)phenyl]cyclobutyl}carbamate], the IC50 was below 0.3 µM.

Consider `COC(=O)N(C[C@@H]1CCCN1)C1(c2cccc(OC(F)(F)F)c2)CCC1` [Methyl N-{[(2S)-pyrrolidin-2-yl]methyl}-N-{1-[3-(trifluoromethoxy)phenyl]cyclobutyl}carbamate], for which the IC50 was below 0.3 µM.

`COC(=O)N(C1CNC1)C1(c2ccc(F)c(C(F)(F)F)c2)CC1` [Methyl azetidin-3-yl(1-(4-fluoro-3-(trifluoromethyl)phenyl)cyclopropyl)carbamate]: the IC50 was below 1 µM.

Turning to `CC(C)(N)CNC1(c2cccc(Cl)c2)CCC1` [N1-[1-(3-chlorophenyl)cyclobutyl]-2-methylpropane-1,2-diamine], the IC50 is below 0.3 µM.

As for `CC(C)(N)CN(C1CCC1)C1(c2cccc(C(F)(F)F)c2)CC1` [N1-cyclobutyl-2-methyl-N1-(1-(3-(trifluoromethyl)phenyl)cyclopropyl)propane-1,2-diamine], the IC50 is below 0.3 µM.

Regarding `CC(C)(N)CNC1(c2ccc(F)c(C(F)(F)F)c2)CCC1` [N1-{1-[4-fluoro-3-(trifluoromethyl)phenyl]cyclobutyl}-2-methylpropane-1,2-diamine], the IC50 is below 0.3 µM.

Regarding `CS(=O)(=O)N(CC1(N)CC1)C1(c2ccc(F)c(C(F)(F)F)c2)CC1` [N-((1-aminocyclopropyl)methyl)-N-(1-(4-fluoro-3-(trifluoromethyl)-phenyl)cyclopropyl)methanesulfonamide], the IC50 is below 1 µM.

Turning to `FC(F)(F)Oc1cccc(C2(NC[C@H]3CCCN3)CCC2)c1` [N-{[(2R)-pyrrolidin-2-yl]methyl}-1-[3-(trifluoromethoxy)phenyl]cyclobutan-1-amine], the half-inhibitory concentration (IC50) is below 1 µM.

As for `FC(F)(F)c1cccc(C2(NC[C@H]3CCCN3)CCC2)c1` [N-{[(2R)-pyrrolidin-2-yl]methyl}-1-[3-(trifluoromethyl)phenyl]cyclobutan-1-amine], the IC50 was below 1 µM.

Consider `FC(F)(F)Oc1cccc(C2(NC[C@@H]3CCCN3)CCC2)c1` [N-{[(2S)-pyrrolidin-2-yl]methyl}-1-[3-(trifluoromethoxy)phenyl]cyclobutan-1-amine], for which the IC50 was below 1 µM.

As for `FC(F)(F)c1cccc(C2(NC[C@@H]3CCCN3)CCC2)c1` [N-{[(2S)-pyrrolidin-2-yl]methyl}-1-[3-(trifluoromethyl)phenyl]cyclobutan-1-amine], the 50% inhibitory concentration (IC50) is below 1 µM.

Take `COC(=O)N(CC(C)(C)N)C1(c2cccc(C(F)(F)F)c2)CCC1` [methyl N-(2-amino-2-methylpropyl)-N-{1-[3-(trifluoromethyl)phenyl]cyclobutyl}carbamate]: the IC50 was below 0.3 µM.

With `COC(=O)N(CC(C)(C)N)C1(c2ccc(F)c(C(F)(F)F)c2)CCC1` [methyl N-(2-amino-2-methylpropyl)-N-{1-[4-fluoro-3-(trifluoromethyl)phenyl]cyclobutyl}carbamate], the IC50 was below 0.3 µM.

`COC(=O)N(C[C@H]1CCCN1)C1(c2ccc(F)c(C(F)(F)F)c2)CCC1` [methyl N-{1-[4-fluoro-3-(trifluoromethyl)phenyl]cyclobutyl}-N-{[(2R)-pyrrolidin-2-yl]methyl}carbamate]: the concentration for half-maximal inhibition (IC50) is below 0.3 µM.

With `COC(=O)N(C[C@@H]1CCCN1)C1(c2ccc(F)c(C(F)(F)F)c2)CCC1` [methyl N-{1-[4-fluoro-3-(trifluoromethyl)phenyl]cyclobutyl}-N-{[(2S)-pyrrolidin-2-yl]methyl}carbamate], the IC50 was below 0.3 µM.
